Data taken from paper PMC8312697, “Mechanistic Investigations Support Liver Safety of Ubrogepant” (Toxicological Sciences, 2020).
Like-named read-outs stand apart in the source and are kept apart here.

Key:
[1] = test system: Nrf2 electrophilic stress and Nrf1 proteasomal stress pathways; assay: In vivo rat liver gene expression bioactivation liver response assay (BA-LRA); conditions: for maximum liver safe daily dose predicted from BA-LRA: human daily dose projected from rat BA-LRA score; for upregulation of pathways associated with electrophilic and proteasomal stress: rat liver gene expression studies; for BA-LRA score: also presented in Monroe et al., 2018
Source text: A prediction of a clinical daily dose burden associated with reactive metabolite-mediated DILI potential was derived from a focused and integrated quantitative rat liver molecular gene expression signature optimized predominantly for Nrf2 electrophilic stress and Nrf1 proteasomal stress pathways to describe a bioactivation liver response assay (BA-LRA) result. […] The clinical dose is identified that projects DILI risk to exceed the optimized threshold calculation for each BA-LRA result.

human hepatocytes = assay: Covalent protein binding in human hepatocytes / reactive metabolite body burden; type: in vitro ADME; conditions: for Projected body burden from covalent-binding studies: covalent protein binding × dose, telcagepant 560 mg, MK-3207 80 mg, ubrogepant 200 mg; for covalent protein binding: radioactivity bound in human hepatocytes
Protocol: The “body burden” is a quantitative estimate of reactive metabolite exposure that was determined for each drug based on in vitro covalent protein binding of radioactivity in human hepatocytes (in pmol equivalents/mg) multiplied by a clinically effective daily dose (in mg/day). Detailed methods used in the in vitro human hepatocyte covalent-binding experiments have been reported by [Nakayama et al. (2009)].

MRP3 = target: T1, MRP3 (Homo sapiens, UniProt O15438); assay: MRP3 vesicular transport inhibition assay; type: biochemical; conditions: for inhibition of MRP3-mediated probe substrate transport: vesicular transport inhibition assay
T1 construct: Solvo Biotechnology (Szeged, Hungary), contract laboratory that ran the assay
T1 sequence (O15438 whole entry): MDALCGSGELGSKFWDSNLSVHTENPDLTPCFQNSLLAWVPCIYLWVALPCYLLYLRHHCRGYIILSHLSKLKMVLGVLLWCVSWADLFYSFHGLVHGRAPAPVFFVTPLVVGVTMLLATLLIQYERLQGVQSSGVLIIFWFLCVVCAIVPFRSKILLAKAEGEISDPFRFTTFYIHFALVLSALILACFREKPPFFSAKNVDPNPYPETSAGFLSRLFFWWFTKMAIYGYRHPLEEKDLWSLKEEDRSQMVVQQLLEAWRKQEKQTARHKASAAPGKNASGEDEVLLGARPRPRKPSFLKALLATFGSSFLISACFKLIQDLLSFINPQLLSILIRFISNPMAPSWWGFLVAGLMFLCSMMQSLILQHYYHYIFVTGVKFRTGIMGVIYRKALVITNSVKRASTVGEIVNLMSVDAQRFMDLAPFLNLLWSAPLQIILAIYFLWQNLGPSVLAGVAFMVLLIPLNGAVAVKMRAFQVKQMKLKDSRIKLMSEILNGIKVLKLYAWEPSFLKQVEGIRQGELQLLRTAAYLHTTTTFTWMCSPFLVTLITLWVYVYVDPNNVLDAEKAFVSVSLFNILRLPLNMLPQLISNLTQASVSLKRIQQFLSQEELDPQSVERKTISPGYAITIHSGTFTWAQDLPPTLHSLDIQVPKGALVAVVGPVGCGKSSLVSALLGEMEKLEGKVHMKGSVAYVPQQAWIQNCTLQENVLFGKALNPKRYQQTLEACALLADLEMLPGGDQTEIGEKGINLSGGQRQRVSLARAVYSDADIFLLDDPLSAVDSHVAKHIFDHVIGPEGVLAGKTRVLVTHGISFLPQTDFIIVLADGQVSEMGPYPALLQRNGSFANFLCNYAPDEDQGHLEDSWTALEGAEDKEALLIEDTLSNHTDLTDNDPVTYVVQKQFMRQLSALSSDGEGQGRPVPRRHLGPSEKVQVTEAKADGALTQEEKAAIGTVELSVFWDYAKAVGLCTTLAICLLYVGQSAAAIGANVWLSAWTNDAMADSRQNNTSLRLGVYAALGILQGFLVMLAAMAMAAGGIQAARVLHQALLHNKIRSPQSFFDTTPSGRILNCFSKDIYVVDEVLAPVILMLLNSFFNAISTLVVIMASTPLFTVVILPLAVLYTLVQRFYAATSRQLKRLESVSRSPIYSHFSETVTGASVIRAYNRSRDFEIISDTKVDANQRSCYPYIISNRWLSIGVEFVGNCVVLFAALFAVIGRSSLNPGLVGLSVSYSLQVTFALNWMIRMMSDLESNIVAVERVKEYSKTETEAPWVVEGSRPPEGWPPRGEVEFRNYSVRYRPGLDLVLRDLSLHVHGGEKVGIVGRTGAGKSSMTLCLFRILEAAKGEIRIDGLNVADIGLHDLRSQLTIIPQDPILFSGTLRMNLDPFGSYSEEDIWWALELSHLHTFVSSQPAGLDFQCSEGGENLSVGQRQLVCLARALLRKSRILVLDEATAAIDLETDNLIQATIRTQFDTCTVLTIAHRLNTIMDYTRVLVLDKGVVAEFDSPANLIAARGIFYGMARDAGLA
Protocol: (§1) To assess the functional impact of ubrogepant on the human ABC efflux transporters BSEP, MRP3, and MRP4, in vitro vesicular transport inhibition assays were conducted by Solvo Biotechnology (Szeged, Hungary). The ability of ubrogepant to inhibit the BSEP-mediated transport (and accumulation) of a probe substrate was tested at concentrations ranging from 0.04 – 30 μM, where the latter defined the upper limit of compound solubility in the BSEP assay buffer. For the MRP3 and MRP4 vesicle-based transporter assessments, ubrogepant concentrations of 0.1 to 70 μM were used. To assess the functional impact of ubrogepant on the human SLC (uptake) transporter NTCP, in vitro experiments were performed using HEK293 cells stably expressing NTCP. The ability of ubrogepant to inhibit NTCP-mediated uptake (and accumulation) of taurocholate was tested at concentrations ranging from 0.04 – 30 μM.
(§2) To assess the functional impact of MK-3207 on the human ABC efflux transporters BSEP, MRP3 and MRP4, in vitro vesicular transport inhibition assays were conducted by Solvo Biotechnology (Szeged, Hungary) and overseen by DSSI. BSEP transport was assessed in the presence of 0.5-30 µM MK-3207; MRP3 and MRP4 transport was assessed in the presence of 0.11-80 µM MK-3207. The upper limits of these ranges were determined by compound solubility in each assay buffer. NTCP transporter inhibition was assessed in NTCP-expressing HEK293 cells in the presence of 0.03 – 25 µM MK-3207.
(§3) IC50 values for MK-3207 were calculated for each of the transporters; these values were used as inputs into DILIsym. It was assumed that inhibition type for MK-3207 for MRP3 and MRP4 was mixed with α= 5; this is a typical value for bile acid transporter inhibitors in the experience of the DSS team.

MRP4 = target: T2, MRP4 (Homo sapiens, UniProt O15439); assay: MRP4 vesicular transport inhibition assay; type: biochemical; conditions: for inhibition of MRP4-mediated probe substrate transport: vesicular transport inhibition assay
T2 construct: Solvo Biotechnology (Szeged, Hungary), contract laboratory that ran the assay
T2 sequence (O15439 1-1325): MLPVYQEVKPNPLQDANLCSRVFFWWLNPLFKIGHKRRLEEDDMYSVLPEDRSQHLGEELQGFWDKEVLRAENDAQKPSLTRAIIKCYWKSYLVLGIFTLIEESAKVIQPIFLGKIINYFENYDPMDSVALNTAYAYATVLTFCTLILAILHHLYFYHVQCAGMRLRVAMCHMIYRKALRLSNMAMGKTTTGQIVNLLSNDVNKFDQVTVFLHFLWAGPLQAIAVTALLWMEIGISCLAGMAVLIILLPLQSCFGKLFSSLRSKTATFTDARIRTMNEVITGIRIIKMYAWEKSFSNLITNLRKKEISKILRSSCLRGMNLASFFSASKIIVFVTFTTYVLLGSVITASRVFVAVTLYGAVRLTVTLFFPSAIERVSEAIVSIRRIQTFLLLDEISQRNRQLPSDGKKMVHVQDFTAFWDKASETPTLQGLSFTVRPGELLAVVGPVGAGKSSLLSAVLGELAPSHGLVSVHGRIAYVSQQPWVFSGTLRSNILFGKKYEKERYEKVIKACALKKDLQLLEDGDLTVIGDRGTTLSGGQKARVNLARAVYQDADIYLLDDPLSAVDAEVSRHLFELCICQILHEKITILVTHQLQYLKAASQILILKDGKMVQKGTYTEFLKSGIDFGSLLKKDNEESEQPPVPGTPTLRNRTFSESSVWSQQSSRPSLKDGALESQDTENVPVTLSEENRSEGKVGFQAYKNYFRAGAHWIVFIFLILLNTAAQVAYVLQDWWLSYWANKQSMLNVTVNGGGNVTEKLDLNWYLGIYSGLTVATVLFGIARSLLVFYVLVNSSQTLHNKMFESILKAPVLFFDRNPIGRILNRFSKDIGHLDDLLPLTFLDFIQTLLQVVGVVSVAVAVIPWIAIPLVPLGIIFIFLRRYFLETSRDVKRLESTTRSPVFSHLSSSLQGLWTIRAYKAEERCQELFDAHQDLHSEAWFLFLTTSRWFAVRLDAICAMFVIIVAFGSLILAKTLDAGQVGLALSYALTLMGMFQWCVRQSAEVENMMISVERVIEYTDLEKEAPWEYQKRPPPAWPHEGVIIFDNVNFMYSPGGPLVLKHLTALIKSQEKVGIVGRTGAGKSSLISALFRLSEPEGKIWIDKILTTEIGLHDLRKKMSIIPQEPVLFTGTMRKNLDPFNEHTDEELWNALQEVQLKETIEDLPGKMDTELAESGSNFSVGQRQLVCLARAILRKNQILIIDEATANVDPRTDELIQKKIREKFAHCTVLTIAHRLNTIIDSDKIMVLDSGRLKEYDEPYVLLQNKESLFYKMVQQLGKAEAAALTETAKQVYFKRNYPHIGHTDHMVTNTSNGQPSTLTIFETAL
Protocol: as §1, §2, §3

[2] = curve fitting assuming maximum inhibition at higher concentrations is 100%, read-out: MRP3 estimated lowest possible IC50

Structure (SMILES) | maximum liver safe daily dose predicted from BA-LRA [1] [mg] | upregulation of pathways associated with electrophilic and proteasomal stress [1] | BA-LRA score ([1]; rat liver, 600 mg/kg/day × 4 days) | Projected body burden from covalent-binding studies (human hepatocytes) | covalent protein binding (human hepatocytes) [pmol equivalents/mg] | IC50 (MRP3; used as basolateral transporter inhibition constant, read-out: MRP3 calculated IC50) [µM] | inhibition of MRP3-mediated probe substrate transport (MRP3) | inhibition of MRP4-mediated probe substrate transport (MRP4) | BA-LRA score ([1]; rat liver, 400 mg/kg/day × 4 days, evidence of transcriptional suppression) | IC50 (MRP3; [2]) [µM] | inhibition at 20 µM (MRP3; human, membrane vesicles with MRP3 (vesicular transport assay), read-out: maximum inhibition at the highest concentration tested, MRP3) [%] | IC50 (MRP4; curve fitting assuming maximum inhibition at higher concentrations is 100%, read-out: MRP4 estimated lowest possible IC50) [µM] | inhibition at 20 µM (MRP4; human, membrane vesicles with MRP4 (vesicular transport assay), read-out: maximum inhibition at the highest concentration tested, MRP4) [%] | BA-LRA response ([1]; rat liver, 7 days with 750 mg/kg) | inhibition at 70 µM (MRP3; human, membrane vesicles with MRP3 (vesicular transport assay), 70 µM (solubility limit), read-out: maximum inhibition at the highest concentration tested, MRP3) [%] | inhibition at 70 µM (MRP4; human, membrane vesicles with MRP4 (vesicular transport assay), 70 µM (solubility limit), read-out: maximum inhibition at the highest concentration tested, MRP4) [%]
O=C(CN1C(=O)C2(CCCC2)NC[C@H]1c1cc(F)cc(F)c1)Nc1ccc2c(c1)C[C@@]1(C2)C(=O)Nc2ncccc21 [MK-3207] | 300 | upregulated pathways associated with electrophilic and proteasomal stress | 0.34 | 14 720 | 184 | 49.9 | inhibited | No inhibition was observed | – | – | – | – | – | – | – | –
O=C(N[C@@H]1CC[C@@H](c2cccc(F)c2F)CN(CC(F)(F)F)C1=O)N1CCC(n2c(=O)[nH]c3ncccc32)CC1 [Telcagepant] | < 600 | upregulated pathways associated with electrophilic and proteasomal stress | – | 14600 | 26 | – | inhibited | inhibited | 0.30 | ≥ 16.6 | < 50 | ≥ 16.9 | < 50 | – | – | –
C[C@@H]1[C@H](c2ccccc2)C[C@H](NC(=O)c2cnc3c(c2)C[C@@]2(C3)C(=O)Nc3ncccc32)C(=O)N1CC(F)(F)F [Ubrogepant] | – | did not | – | 4600 | 23 | – | inhibited | did not inhibit MRP4 | – | ≥ 85.9 | – | – | – | No BA-LRA response | < 50 | < 50
